{"source": "patent US12404295B2", "about": "“(Hetero)aryl-methyl-thio-beta-D-galactopyranoside derivatives” (Idorsia Pharmaceuticals Ltd, priority 2019, dated 2025)", "key": {"[1]": {"molecular_target": "human Gal-1 (hGal-1) (Homo sapiens (Human), UniProt P09382)", "sequence (P09382 whole entry)": "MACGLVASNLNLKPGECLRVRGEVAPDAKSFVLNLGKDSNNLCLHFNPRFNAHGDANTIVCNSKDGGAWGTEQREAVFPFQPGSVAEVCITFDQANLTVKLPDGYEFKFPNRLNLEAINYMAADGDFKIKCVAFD", "assay": "competitive binding assay: biotinylated hGal-1 binding to microplate-adsorbed asialofetuin (ASF)", "details": "Table 15; read-out: IC50 (Galectin-1 inhibition)", "how_it_was_run": "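Spectrophotometric competition readout: after compound and biotinylated hGal-1 (300-1000 ng/mL) sit 3 h at 4° C on adsorbed asialofetuin, streptavidin-peroxidase (1 h, 4° C) and ABTS reveal residual binding. Reported IC50 values are means of repeat runs.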"}, "[2]": {"molecular_target": "human Gal-3 (hGal-3) (Homo sapiens (Human), UniProt P17931)", "sequence (P17931 whole entry)": "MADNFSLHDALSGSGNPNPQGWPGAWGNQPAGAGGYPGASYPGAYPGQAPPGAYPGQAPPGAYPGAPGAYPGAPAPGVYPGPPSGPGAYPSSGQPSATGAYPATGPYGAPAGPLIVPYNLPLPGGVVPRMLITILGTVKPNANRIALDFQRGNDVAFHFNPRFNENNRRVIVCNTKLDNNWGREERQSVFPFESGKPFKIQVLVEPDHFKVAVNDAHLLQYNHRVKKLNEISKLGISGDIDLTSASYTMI", "assay": "competitive binding assay: biotinylated hGal-3 binding to microplate-adsorbed asialofetuin (ASF)", "how_it_was_run": "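3 h, 4 °C binding step; cold buffer wash; streptavidin-HRP 80 ng/mL, 1 h, 4 °C; ABTS colorimetric read-out. Compounds diluted serially in DMSO. IC50 reported as mean of repeat runs.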"}, "[3]": {"details": "Table 5, read-out: IC50 (Gal-3 inhibition)"}, "[4]": {"details": "Gal-3 inhibition, binding of biotinylated hGal-3 to ASF, mean values, read-out: IC50"}}, "note": "Where two headings read alike, the source gives them in different places."}
{"compound": "CN1CCC(O)([C@H](S[C@@H]2O[C@H](CO)[C@H](O)[C@H](n3cc(-c4cc(F)c(F)c(F)c4)nn3)[C@H]2O)c2ncccc2C(F)(F)F)CC1", "note": "[Example 2.40.125R., (2S,3R,4S,5R,6R)-2-(((R)-(4-Hydroxy-1-methylpiperidin-4-yl)(3-(trifluoromethyl)pyridin-2-yl)methyl)thio)-6-(hydroxymethyl)-4-(4-(3,4,5-trifluorophenyl)-1H-1,2,3-triazol-1-yl)tetrahydro-2H-pyran-3,5-diol]", "values": [{"measurement": "IC50", "setting": "[1]", "value": 0.04, "unit": "µM"}, {"measurement": "IC50", "setting": "[2]; [3]", "value": 0.02, "unit": "µM"}]}
{"compound": "CN1CCC(O)([C@@H](S[C@@H]2O[C@H](CO)[C@H](O)[C@H](n3cc(-c4cc(F)c(F)c(F)c4)nn3)[C@H]2O)c2ncccc2C(F)(F)F)CC1", "note": "[Example 2.40.125S., (2S,3R,4S,5R,6R)-2-(((S)-(4-Hydroxy-1-methylpiperidin-4-yl)(3-(trifluoromethyl)pyridin-2-yl)methyl)thio)-6-(hydroxymethyl)-4-(4-(3,4,5-trifluorophenyl)-1H-1,2,3-triazol-1-yl)tetrahydro-2H-pyran-3,5-diol]", "values": [{"measurement": "IC50", "setting": "[1]", "value": 11.2, "unit": "µM"}, {"measurement": "IC50", "setting": "[2]; [3]", "value": 3.65, "unit": "µM"}]}
{"compound": "Cc1ccccc1C(S[C@@H]1O[C@H](CO)[C@H](O)[C@H](n2cc(-c3cc(F)c(F)c(F)c3)nn2)[C@H]1O)C1(O)CCOCC1", "note": "(some centres unmarked) [Example 2.41.102.]", "values": [{"measurement": "IC50", "setting": "[1]", "value": 1.61, "unit": "µM"}, {"measurement": "IC50", "setting": "[2]; [3]", "value": 0.09, "unit": "µM"}]}
{"compound": "Cc1ccccc1[C@@H](S[C@@H]1O[C@H](CO)[C@H](O)[C@H](n2cc(-c3cc(F)c(F)c(F)c3)nn2)[C@H]1O)C1(O)CCOCC1", "note": "[Example 2.41.102R.]", "values": [{"measurement": "IC50", "setting": "[1]", "value": 0.21, "unit": "µM"}, {"measurement": "IC50", "setting": "[2]; [3]", "value": 0.04, "unit": "µM"}]}
{"compound": "Cc1ccccc1[C@H](S[C@@H]1O[C@H](CO)[C@H](O)[C@H](n2cc(-c3cc(F)c(F)c(F)c3)nn2)[C@H]1O)C1(O)CCOCC1", "note": "[Example 2.41.102S.]", "values": [{"measurement": "IC50", "setting": "[1]", "value": 65.4, "unit": "µM"}, {"measurement": "IC50", "setting": "[2]; [3]", "value": 7.36, "unit": "µM"}]}
{"compound": "OC[C@H]1O[C@@H](SC(c2ccccc2C(F)(F)F)C2(O)CCOCC2)[C@H](O)[C@@H](n2cc(-c3cc(F)c(F)c(F)c3)nn2)[C@H]1O", "note": "(stereo partly drawn) [Example 2.41.112., (2R,3R,4S,5R,6S)-2-(Hydroxymethyl)-6-(((4-hydroxytetrahydro-2H-pyran-4-yl)(2-(trifluoromethyl)phenyl)methyl)thio)-4-(4-(3,4,5-trifluorophenyl)-1H-1,2,3-triazol-1-yl)tetrahydro-2H-pyran-3,5-diol]", "values": [{"measurement": "IC50", "setting": "[1]", "value": 0.9, "unit": "µM"}, {"measurement": "IC50", "setting": "[2]; [3]", "value": 0.11, "unit": "µM"}]}
{"compound": "OC[C@H]1O[C@@H](S[C@H](c2ccccc2C(F)(F)F)C2(O)CCOCC2)[C@H](O)[C@@H](n2cc(-c3cc(F)c(F)c(F)c3)nn2)[C@H]1O", "note": "[Example 2.41.112R., (2R,3R,4S,5R,6S)-2-(Hydroxymethyl)-6-(((R)-(4-hydroxytetrahydro-2H-pyran-4-yl)(2-(trifluoromethyl)phenyl)methyl)thio)-4-(4-(3,4,5-trifluorophenyl)-1H-1,2,3-triazol-1-yl)tetrahydro-2H-pyran-3,5-diol]", "values": [{"measurement": "IC50", "setting": "[1]", "value": 0.9, "unit": "µM"}, {"measurement": "IC50", "setting": "[2]; [3]", "value": 0.08, "unit": "µM"}]}
{"compound": "OC[C@H]1O[C@@H](S[C@@H](c2ccccc2C(F)(F)F)C2(O)CCOCC2)[C@H](O)[C@@H](n2cc(-c3cc(F)c(F)c(F)c3)nn2)[C@H]1O", "note": "[Example 2.41.112S., (2R,3R,4S,5R,6S)-2-(Hydroxymethyl)-6-(((S)-(4-hydroxytetrahydro-2H-pyran-4-yl)(2-(trifluoromethyl)phenyl)methyl)thio)-4-(4-(3,4,5-trifluorophenyl)-1H-1,2,3-triazol-1-yl)tetrahydro-2H-pyran-3,5-diol]", "values": [{"measurement": "IC50", "setting": "[1]", "value": 59.4, "unit": "µM"}, {"measurement": "IC50", "setting": "[2]; [3]", "value": 6, "unit": "µM"}]}
{"compound": "Cc1nc(C)c(C(S[C@@H]2O[C@H](CO)[C@H](O)[C@H](n3cc(-c4cc(F)c(F)c(F)c4)nn3)[C@H]2O)C2(O)CCOCC2)nc1C", "note": "(stereo partly drawn) [Example 2.41.119., (2R,3R,4S,5R,6S)-2-(Hydroxymethyl)-6-(((4-hydroxytetrahydro-2H-pyran-4-yl)(3,5,6-trimethylpyrazin-2-yl)methyl)thio)-4-(4-(3,4,5-trifluorophenyl)-1H-1,2,3-triazol-1-yl)tetrahydro-2H-pyran-3,5-diol]", "values": [{"measurement": "IC50", "setting": "[1]", "value": 20, "unit": "µM"}, {"measurement": "IC50", "setting": "[2]; [3]", "value": 0.16, "unit": "µM"}]}
{"compound": "Cc1nc(C)c([C@@H](S[C@@H]2O[C@H](CO)[C@H](O)[C@H](n3cc(-c4cc(F)c(F)c(F)c4)nn3)[C@H]2O)C2(O)CCOCC2)nc1C", "note": "[Example 2.41.119R., (2R,3R,4S,5R,6S)-2-(Hydroxymethyl)-6-(((R)-(4-hydroxytetrahydro-2H-pyran-4-yl)(3,5,6-trimethylpyrazin-2-yl)methyl)thio)-4-(4-(3,4,5-trifluorophenyl)-1H-1,2,3-triazol-1-yl)tetrahydro-2H-pyran-3,5-diol]", "values": [{"measurement": "IC50", "setting": "[1]", "value": 0.49, "unit": "µM"}, {"measurement": "IC50", "setting": "[2]; [3]", "value": 0.06, "unit": "µM"}]}
{"compound": "Cc1nc(C)c([C@H](S[C@@H]2O[C@H](CO)[C@H](O)[C@H](n3cc(-c4cc(F)c(F)c(F)c4)nn3)[C@H]2O)C2(O)CCOCC2)nc1C", "note": "[Example 2.41.119S., (2R,3R,4S,5R,6S)-2-(Hydroxymethyl)-6-(((S)-(4-hydroxytetrahydro-2H-pyran-4-yl)(3,5,6-trimethylpyrazin-2-yl)methyl)thio)-4-(4-(3,4,5-trifluorophenyl)-1H-1,2,3-triazol-1-yl)tetrahydro-2H-pyran-3,5-diol]", "values": [{"measurement": "IC50", "setting": "[1]", "value": 19.9, "unit": "µM"}, {"measurement": "IC50", "setting": "[2]; [3]", "value": 2.99, "unit": "µM"}]}
{"compound": "CO[C@@H]1[C@@H](n2cc(-c3cc(F)c(F)c(F)c3)nn2)[C@@H](O)[C@@H](CO)O[C@H]1S[C@H](c1nocc1C)C1(O)CCOCC1", "note": "[Example 2.41.120R.I., (2R,3R,4S,5R,6S)-2-(Hydroxymethyl)-6-(((R)-(4-hydroxytetrahydro-2H-pyran-4-yl)(4-methylisoxazol-3-yl)methyl)thio)-5-methoxy-4-(4-(3,4,5-trifluorophenyl)-1H-1,2,3-triazol-1-yl)tetrahydro-2H-pyran-3-ol]", "values": [{"measurement": "IC50", "setting": "[1]", "value": 0.5, "unit": "µM"}, {"measurement": "IC50", "setting": "[2]; Table 10, 2-OMe-Gal inhibitors, read-out: IC50 (Gal-3 inhibition)", "value": 0.19, "unit": "µM"}]}
{"compound": "OC[C@H]1O[C@@H](SC(c2ncccc2C(F)(F)F)C2(O)CCOCC2)[C@H](O)[C@@H](n2cc(-c3cc(F)c(F)c(F)c3)nn2)[C@H]1O", "note": "(stereo partly drawn) [Example 2.41.125., (2R,3R,4S,5R,6S)-2-(Hydroxymethyl)-6-(((4-hydroxytetrahydro-2H-pyran-4-yl)(3-(trifluoromethyl)pyridin-2-yl)methyl)thio)-4-(4-(3,4,5-trifluorophenyl)-1H-1,2,3-triazol-1-yl)tetrahydro-2H-pyran-3,5-diol]", "values": [{"measurement": "IC50", "setting": "[1]", "value": 5.7, "unit": "µM"}, {"measurement": "IC50", "setting": "[2]; [3]", "value": 0.25, "unit": "µM"}]}
{"compound": "OC[C@H]1O[C@@H](S[C@H](c2ncccc2C(F)(F)F)C2(O)CCOCC2)[C@H](O)[C@@H](n2cc(-c3cc(F)c(F)c(F)c3)nn2)[C@H]1O", "note": "[Example 2.41.125R., (2R,3R,4S,5R,6S)-2-(Hydroxymethyl)-6-(((R)-(4-hydroxytetrahydro-2H-pyran-4-yl)(3-(trifluoromethyl)pyridin-2-yl)methyl)thio)-4-(4-(3,4,5-trifluorophenyl)-1H-1,2,3-triazol-1-yl)tetrahydro-2H-pyran-3,5-diol]", "values": [{"measurement": "IC50", "setting": "[1]", "value": 0.13, "unit": "µM"}, {"measurement": "IC50", "setting": "[2]; [3]", "value": 0.03, "unit": "µM"}]}
{"compound": "OC[C@H]1O[C@@H](S[C@@H](c2ncccc2C(F)(F)F)C2(O)CCOCC2)[C@H](O)[C@@H](n2cc(-c3cc(F)c(F)c(F)c3)nn2)[C@H]1O", "note": "[Example 2.41.125S., (2R,3R,4S,5R,6S)-2-(Hydroxymethyl)-6-(((S)-(4-hydroxytetrahydro-2H-pyran-4-yl)(3-(trifluoromethyl)pyridin-2-yl)methyl)thio)-4-(4-(3,4,5-trifluorophenyl)-1H-1,2,3-triazol-1-yl)tetrahydro-2H-pyran-3,5-diol]", "values": [{"measurement": "IC50", "setting": "[1]", "value": 7.47, "unit": "µM"}, {"measurement": "IC50", "setting": "[2]; [3]", "value": 1.83, "unit": "µM"}]}
{"compound": "Cc1cccnc1C(S[C@@H]1O[C@H](CO)[C@H](O)[C@H](n2cc(-c3cc(F)c(F)c(F)c3)nn2)[C@H]1O)C1(O)CCOCC1", "note": "(stereo partly drawn) [Example 2.41.126., (2R,3R,4S,5R,6S)-2-(Hydroxymethyl)-6-(((4-hydroxytetrahydro-2H-pyran-4-yl)(3-methylpyridin-2-yl)methyl)thio)-4-(4-(3,4,5-trifluorophenyl)-1H-1,2,3-triazol-1-yl)tetrahydro-2H-pyran-3,5-diol]", "values": [{"measurement": "IC50", "setting": "[1]", "value": 0.8, "unit": "µM"}, {"measurement": "IC50", "setting": "[2]; [4]", "value": 0.08, "unit": "µM"}]}
{"compound": "Cc1cccnc1[C@@H](S[C@@H]1O[C@H](CO)[C@H](O)[C@H](n2cc(-c3cc(F)c(F)c(F)c3)nn2)[C@H]1O)C1(O)CCOCC1", "note": "[Example 2.41.126R., (2R,3R,4S,5R,6S)-2-(Hydroxymethyl)-6-(((R)-(4-hydroxytetrahydro-2H-pyran-4-yl)(3-methylpyridin-2-yl)methyl)thio)-4-(4-(3,4,5-trifluorophenyl)-1H-1,2,3-triazol-1-yl)tetrahydro-2H-pyran-3,5-diol]", "values": [{"measurement": "IC50", "setting": "[1]", "value": 0.7, "unit": "µM"}, {"measurement": "IC50", "setting": "[2]; [4]", "value": 0.03, "unit": "µM"}]}
{"compound": "CO[C@@H]1[C@@H](n2cc(-c3cc(F)c(F)c(F)c3)nn2)[C@@H](O)[C@@H](CO)O[C@H]1S[C@H](c1ncccc1C)C1(O)CCOCC1", "note": "[Example 2.41.126R.I., (2R,3R,4S,5R,6S)-2-(Hydroxymethyl)-6-(((R)-(4-hydroxytetrahydro-2H-pyran-4-yl)(3-methylpyridin-2-yl)methyl)thio)-5-methoxy-4-(4-(3,4,5-trifluorophenyl)-1H-1,2,3-triazol-1-yl)tetrahydro-2H-pyran-3-ol]", "values": [{"measurement": "IC50", "setting": "[1]", "value": 0.8, "unit": "µM"}, {"measurement": "IC50", "setting": "[2]; Table 9, 2-OMe-Gal inhibitors, read-out: IC50 (Gal-3 inhibition)", "value": 0.06, "unit": "µM"}]}
{"compound": "Cc1cccnc1[C@H](S[C@@H]1O[C@H](CO)[C@H](O)[C@H](n2cc(-c3cc(F)c(F)c(F)c3)nn2)[C@H]1O)C1(O)CCOCC1", "note": "[Example 2.41.126S., (2R,3R,4S,5R,6S)-2-(Hydroxymethyl)-6-(((S)-(4-hydroxytetrahydro-2H-pyran-4-yl)(3-methylpyridin-2-yl)methyl)thio)-4-(4-(3,4,5-trifluorophenyl)-1H-1,2,3-triazol-1-yl)tetrahydro-2H-pyran-3,5-diol]", "values": [{"measurement": "IC50", "setting": "[1]", "value": 70.4, "unit": "µM"}, {"measurement": "IC50", "setting": "[2]; [4]", "value": 2.25, "unit": "µM"}]}
